The numbers were not newly measured in patent US10004757B1, “Oral supplement” (Nutri Vida, LLC, priority 2017, dated 2018), which cites them from elsewhere.

For this data set the following is noted: taken over the daily recommended amount.

SMILES strings stand for the structures.

As for `O=C(O)c1cccnc1` [Niacin, nicotinic acid], the decrease in triglycerides is listed as 30%.
